Measured values taken from patent US20130317037A1, “METHOD OF ADMINISTRATION AND TREATMENT” (GlaxoSmithKline Intellectual Property Development Limited, priority 2010, published 2013).
Where two headings read alike, the source gives them in different places.

Key:
Assay type in all cases: cell-based
MCF12A = assay: cells
Description: (§1) From the stock concentration, 8 serial dilutions (1:5) were made with DMSO.
(§2) Day −1: Plate cells in 100 μl volume in 96 well plate. • Note: Cell number seeded adjusted for growth characteristics, so that at time of assay for proliferation following three-day drug treatment, the control wells should still be in log-growth phase (sub-confluent). Day 0: Drug added to plate for treatment. • A time 0 plate was processed for the proliferation assay to establish a baseline reading at time when drug was added.
(§3) LBNL are following the protocols set up by the NCI/NIH DTP Human Tumor Cell Line Screen Process (http://dtp.nci.nih.gov/branches/btb/ivclsp.html) and summarized below.
(§4) [(Ti−Tz)/(C−Tz)]×100 for concentrations for which Ti>/=Tz
(§5) [(Ti−Tz)/(C−Tz)]×100=50, • which is the drug concentration resulting in a 50% reduction in the net growth in control cells during the drug incubation. TGI: Total growth inhibition is calculated from
(§6) Ti=Tz. • The drug concentration resulting in total growth inhibition (down to the ‘time 0’ baseline). LC50: Net loss of cell growth at 50% is calculated from
(§7) [(Ti−Tz)/Tz]×100=−50. • The concentration of drug resulting in a 50% reduction in the cell number at the end of the drug treatment as compared to that at the beginning (time 0) indicating a net loss of cells following treatment.
(§8) Values are calculated for each of these three parameters if the level of activity is reached; however, if the effect is not reached or is exceeded, the value for that parameter is expressed as greater or less than the maximum or minimum concentration tested.

HCC1419 = assay: cells
Description: as §1, §2, §3, §4, §5, §6, §7, §8

SKBR3 = assay: cells
Description: as §1, §2, §3, §4, §5, §6, §7, §8

HCC3153 = assay: cells
Description: as §1, §2, §3, §4, §5, §6, §7, §8

BT483 = assay: cells
Description: as §1, §2, §3, §4, §5, §6, §7, §8

HCC2185 = assay: cells
Description: as §1, §2, §3, §4, §5, §6, §7, §8

T47DKBluc = assay: cells
Description: as §1, §2, §3, §4, §5, §6, §7, §8

600MPE = assay: cells
Description: as §1, §2, §3, §4, §5, §6, §7, §8

BT549 = assay: cells
Description: as §1, §2, §3, §4, §5, §6, §7, §8

in vitro = settings: human
Description: as §1, §2, §3, §4, §5, §6, §7, §8

M4A4 = assay: cells
Description: as §1, §2, §3, §4, §5, §6, §7, §8

[1] = Homo sapiens, 50% net loss of cells vs time 0, read-out: LC50 (the source's name)
[2] = Homo sapiens, 72 h, three-day drug treatment, read-out: gIC50

COc1ncc(-c2ccc3nccc(-c4ccnnc4)c3c2)cc1NS(=O)(=O)c1ccc(F)cc1F [Compound B, 2,4-difluoro-N-{2-(methyloxy)-5-[4-(4-pyridazinyl)-6-quinolinyl]-3-pyridinyl}benzenesulfonamide]
IC50 (MCF12A; Homo sapiens, MCF-12A, 72 h, three-day drug treatment, read-out: gIC50): 7.4 nM
TGI (MCF12A; total growth inhibition): 178.5 nM
TGI (HCC1419; HCC1419, total growth inhibition): 5.2 nM
IC50 (HCC1419; Homo sapiens, 72 h, HCC1419, three-day drug treatment, read-out: gIC50): 1.5 nM
CC50 (HCC1419; Homo sapiens, HCC1419, 50% net loss of cells vs time 0, read-out: LC50 (the source's name)): 514 nM
IC50 (SKBR3; Homo sapiens, SK-BR-3, 72 h, SKBR3, three-day drug treatment, read-out: gIC50): 3.2 nM
TGI (SKBR3; SKBR3, total growth inhibition): 199.5 nM
TGI (HCC3153; HCC3153, total growth inhibition): 281.8 nM
IC50 (HCC3153; Homo sapiens, 72 h, HCC3153, three-day drug treatment, read-out: gIC50): 38.9 nM
CC50 (HCC3153; Homo sapiens, HCC3153, 50% net loss of cells vs time 0, read-out: LC50 (the source's name)): ≥ 35500 nM
TGI (BT483; BT483, total growth inhibition): 8.5 nM
IC50 (BT483; Homo sapiens, BT-483, 72 h, BT483, three-day drug treatment, read-out: gIC50): 1.5 nM
CC50 (BT483; Homo sapiens, BT-483, BT483, 50% net loss of cells vs time 0, read-out: LC50 (the source's name)): 1170 nM
TGI (HCC2185; HCC2185, total growth inhibition): 10.0 nM
IC50 (HCC2185; Homo sapiens, 72 h, HCC2185, three-day drug treatment, read-out: gIC50): 3.2 nM
CC50 (HCC2185; Homo sapiens, HCC2185, 50% net loss of cells vs time 0, read-out: LC50 (the source's name)): 132 nM
CC50 (T47DKBluc; [1]): 9500 nM
IC50 (T47DKBluc; [2]): 15.4 nM
TGI (T47DKBluc; total growth inhibition): 74.3 nM
CC50 (600MPE; [1]): 875 nM
IC50 (600MPE; [2]): 6.8 nM
TGI (600MPE; total growth inhibition): 33.5 nM
TGI (BT549; BT549, total growth inhibition): >33000.0 nM
IC50 (BT549; Homo sapiens, BT-549, 72 h, BT549, three-day drug treatment, read-out: gIC50): 42.7 nM
CC50 (BT549; Homo sapiens, BT-549, BT549, 50% net loss of cells vs time 0, read-out: LC50 (the source's name)): > 33000 nM
CC50 at 3 days (in vitro; 184A1 breast epithelium cells (HER2−, PIK3CA NA), 184A1, 50% net loss of cells vs time 0, read-out: LC50): 26700 nM
CC50 at 3 days (in vitro; 184B5 breast epithelium cells (HER2−, PIK3CA NA), 184B5, 50% net loss of cells vs time 0, read-out: LC50): > 33000 nM
CC50 at 3 days (in vitro; MCF10A cells (breast epithelium; HER2−; PIK3CA NA), 50% net loss of cells vs time 0, read-out: LC50): 6700 nM
CC50 at 3 days (in vitro; MCF10F cells (breast epithelium; HER2−; PIK3CA NA), 50% net loss of cells vs time 0, read-out: LC50): 98.7 nM
CC50 at 3 days (in vitro; MCF12A cells (breast epithelium; HER2−; PIK3CA wild type), 50% net loss of cells vs time 0, read-out: LC50): 2760 nM
IC50 (M4A4; Homo sapiens, 72 h, M4A4, three-day drug treatment, read-out: gIC50): 30.2 nM
CC50 (M4A4; Homo sapiens, M4A4, 50% net loss of cells vs time 0, read-out: LC50 (the source's name)): > 33000 nM
TGI (M4A4; M4A4, total growth inhibition): 281.8 nM
